Reference: patent US20040053234A1, “Polynucletides that control delta-6 desaturase genes and methods for identifying compounds for modulating delta-6 desaturase” (priority 2000, published 2004)

Tested on: delta-6-desaturase
Assay: Inhibition of delta-6-desaturase in rat liver microsomes incubated with [1-14C]-dihomogammalinolenic acid
Format: biochemical
Details: for % of inhibition: substrate [1-14C]-dihomogammalinolenic acid
Description: Wistar rats under light halothane (15% in mineral oil) anesthesia were sacrificed by exsanguination during periods of high enzyme activity. Livers are immediately rinsed with cold 0.9% NaCl solution, weighed and minced with scissors. All procedures are performed at 4° C. unless specified otherwise. Livers are homogenized in a solution (1:3 w/v) containing 0.25 M sucrose, 62 mM potassium phosphate buffer (pH 7.0), 0.15 M KCl, 1.5 mM N-acetylcysteine, 5 mM MgCl2, and 0.1 mM EDTA using 4 strokes of a Potter-Elvehjem tissue homogenizer. The homogenate is centrifuged at 10,400×g for 20 min to eliminate mitochondria and cellular debris. The supernatant is filtered through a 3-layer cheesecloth and centrifuged at 105,000×g for 60 min. The microsomal pellet is gently resuspended in the same homogenization solution with a small glass/teflon homogenizer and stored at −70° C. The absence of mitochondrial contamination is enzymatically assessed. The protein concentration is measured using bovine serum albumin as the standard.
Reactions are started by adding 2 mg of microsomal protein to pre-incubated tubes containing 0.20 μCi of the substrate fatty acid (DGLA) at a final concentration of 33.3 μM in 1.5 ml of homogenization solution, containing NaF (42 mM), niacinamide (0.33 mM), ATP (1.57 mM), NADH (1.0 mM), coenzyme A (0.09 mM) and a range of concentrations of the enzyme modulators. N-propyl gallate was added to the incubation medium to a final concentration of 0.02-0.32 mM. The tubes are vortexed vigorously and after 15 min incubation in a shaking water bath (37° C.), the reactions are stopped and fatty acids are analyzed as described in herein. Alternatively, fatty acid methyl esters are analyzed by capillary column gas chromatography (GC).

## CCCOC(=O)c1cc(O)c(O)c(O)c1 [n-propyl gallate, Propyl ester of 3,4,5-trihydroxybenzoic acid]
Inhibitor 0.02 mM
  % of inhibition: 62.9%
Inhibitor 0.04 mM
  % of inhibition: 74.9%
Inhibitor 0.08 mM
  % of inhibition: 86.4%
Inhibitor 0.16 mM
  % of inhibition: 88.7%
Inhibitor 0.32 mM
  % of inhibition: 100.0%
Rat liver microsomes, Table 20
  Inhibitor concentration at which a plateau of inhibition was reached: 0.08 to 0.32 mM
